Data as given in US12686690B2, “Macrocyclic urea orexin receptor agonists” (Merck Sharp & Dohme LLC, priority 2020, dated 2026).

Target: T1, hOX2R (Homo sapiens, UniProt O43614)
T1 construct: expressed in transfected cells; host or cells: CHO cells (G418 selection)
T1 sequence (O43614 1-444): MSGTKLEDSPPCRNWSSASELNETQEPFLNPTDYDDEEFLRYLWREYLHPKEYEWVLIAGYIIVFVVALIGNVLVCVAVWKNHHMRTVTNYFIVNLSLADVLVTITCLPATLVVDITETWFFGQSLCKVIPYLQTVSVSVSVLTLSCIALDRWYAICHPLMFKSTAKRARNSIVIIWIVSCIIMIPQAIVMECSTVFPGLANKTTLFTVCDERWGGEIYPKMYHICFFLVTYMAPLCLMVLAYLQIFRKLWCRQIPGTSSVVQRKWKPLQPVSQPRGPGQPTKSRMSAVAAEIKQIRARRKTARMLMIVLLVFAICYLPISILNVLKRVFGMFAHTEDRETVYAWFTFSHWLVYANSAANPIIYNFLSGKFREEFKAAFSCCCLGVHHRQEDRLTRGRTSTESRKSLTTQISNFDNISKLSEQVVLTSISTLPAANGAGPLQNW
Assay: hOX2R IPone assay (orexin receptor agonism)
Type: cell-based
Conditions: IPone readout; for hOX2R_Ipone max %act: maximal activation; for EC50: orexin receptor agonist, read-out: hOX2R_IPone EC50

Compound | hOX2R_Ipone max %act [%] | EC50 [nM]
CCN1C(=O)N[C@@H](CCC(F)(F)F)CCCCCOc2cc(nn3ccnc23)-c2cc(ncc2OC)[C@H]1C [Example 149, (3R,7R,E)-4-ethyl-25-methoxy-3-methyl-7-(3,3,3-trifluoropropyl)-13-oxa-4,6-diaza-1(6,8)-imidazo[1,2-b]pyridazina-2(4,2)-pyridinacyclotridecaphan-5-one] | 109.6 | 1.11
CCN1C(=O)NC(CCCC(F)F)CCCCCOc2nc(cn3ccnc23)-c2cc(ncc2OC)[C@H]1C (stereo partly drawn) [Example 184, (3R,E)-7-(4,4-difluorobutyl)-4-ethyl-25-methoxy-3-methyl-13-oxa-4,6-diaza-1(6,8)-imidazo[1,2-a]pyrazina-2(4,2)-pyridinacyclotridecaphan-5-one] | 101.1 | 0.78
CCN1C(=O)NCCN2CCCC(C2)Oc2nc(cn3ccnc23)-c2cccc(c2)[C@H]1C (mixture of isomers) [Example 5, (7R)-8-ethyl-7-methyl-18-oxa-8,10,13,21,24,26-hexaazapentacyclo[17.6.1.1~ 2,6~.1~13,17~.0~20,24~] octacosa-1(25),2(28),3,5,19(26),20,22-heptaen-9-one (non-preferred name)] | 93.82 | 1380
CCN1C(=O)NC(CCC(F)(F)F)CCOCCOc2nc(cn3ccnc23)-c2cc(ncc2OC)[C@H]1C (single isomer, unassigned) [Example 6A] | 103.5 | 11.9
CCN1C(=O)N[C@@H](C(F)(F)F)CCCCCOc2nc(cn3ccnc23)-c2cc(ncc2OC)[C@H]1C [Example 77, (12R,16R)-13-ethyl-8-methoxy-12-methyl-16-(trifluoromethyl)-12,13,16,17,18,19,20, 21-octahydro-6,23-(azeno)-11,7-(metheno)imidazo[2,1-c][1,4,10,13,15]oxatet-raazacyclohenicosin-14(15H)-one] | 101.7 | 20.9
CCN1C(=O)N[C@@H](CCC(F)(F)F)CCCCOc2nc(cn3ccnc23)-c2cc(cnc2OC)[C@H]1C [Example 27, (3R,7R,E)-4-ethyl-22-methoxy-3-methyl-7-(3,3,3-trifluoropropyl)-12-oxa-4,6-diaza-1(6,8)-imidazo[1,2-a]pyrazina-2(3,5)-pyridinacyclododecaphan-5-one] | 101.1 | 1.4
CCN1C(=O)NC(C(O)CC(F)(F)F)CCCCCOc2cn3ncnc3c(n2)-c2cc(ncc2OC)C1C [Example 132, (3R,7R,E)-4-ethyl-25-methoxy-3-methyl-7-((R)-3,3,3-trifluoro-1-hydroxypropyl)-13-oxa-4,6-diaza-1(6,8)-[1,2,4]triazolo[1,5-a]pyrazina-2(4,2)-pyridinacyclotridecaphan-5-one] | 102.9 | 4.98
CCN1C(=O)NC(CC(C)C)CCCCCOc2nc(cn3ccnc23)-c2cc(ncc2OC)[C@H]1C (single isomer, unassigned) [Example 53B] | 102.3 | 0.9
CCN1C(=O)NC(CCC(C)(F)F)CCCCCOc2nc(c(C)n3ncnc23)-c2cc(ncc2OC)C1C [Example 172, (3R,7R,E)-7-(3,3-difluorobutyl)-4-ethyl-25-methoxy-15,3-dimethyl-13-oxa-4,6-diaza-1(6,8)-[1,2,4]triazolo[1,5-a]pyrazina-2(4,2)-pyridinacyclotridecaphan-5-one] | 101 | 7.2
CCN1C(=O)N[C@@H](CCC(F)(F)F)COCCCOc2nc(cn3ncnc23)-c2cc(ncc2OC)[C@H]1C [Example 174, (3R,7S,E)-4-ethyl-25-methoxy-3-methyl-7-(3,3,3-trifluoropropyl)-9,13-dioxa-4,6-diaza-1(6,8)-[1,2,4]triazolo[1,5-a]pyrazina-2(4,2)-pyridinacyclotridecaphan-5-one] | 103.8 | 3.08
CCN1C(=O)NC(CCC#N)CCCCCOc2nc(cn3ccnc23)-c2cc(ncc2OC)[C@H]1C (stereo partly drawn) [Example 196, 3-((3R,E)-4-ethyl-25-methoxy-3-methyl-5-oxo-13-oxa-4,6-diaza-1(6,8)-imidazo[1,2-a]pyrazina-2(4,2)-pyridinacyclotridecaphane-7-yl)propanenitrile] | 101.6 | 0.44
CCN1C(=O)N[C@@H](CCC(C)(F)F)CCOCCOc2nc(nn3ccnc23)-c2cc(ncc2OC)[C@H]1C [Example 155, (3R,7S,E)-7-(3,3-difluorobutyl)-4-ethyl-25-methoxy-3-methyl-10,13-dioxa-4,6-diaza-1(2,4)-imidazo[2,1-f][1,2,4]triazina-2(4,2)-pyridinacyclotridecaphan-5-one] | 96.86 | 0.74
CCN1C(=O)NCC(C(F)(F)F)N(C)CCOc2nc(cn3ccnc23)-c2cccc(c2)[C@H]1C (single isomer, unassigned) [Example 25A] | 96.6 | 250
CCN1Cc2cnc(OC)c(c2)-c2cn3ccnc3c(n2)OCCCCC[C@H](CCC(F)(F)F)NC1=O [Example 51] | 99.5 | 0.6
CCN1C(=O)N[C@@H](CF)CCCCCOc2nc(cn3ccnc23)-c2cc(ncc2OC)[C@H]1C [Example 126, (3R,7R,E)-4-ethyl-7-(fluoromethyl)-25-methoxy-3-methyl-13-oxa-4,6-diaza-1(6,8)-imidazo[1,2-a]pyrazina-2(4,2)-pyridinacyclotridecaphan-5-one] | 96.84 | 9.38
CCN1C(=O)N[C@@H](CCC(F)(F)F)CCCCCOc2nc(cn3ccnc23)-c2cc(nc3ccoc23)C1C (single isomer, unassigned) [Example 74A] | 99.5 | 17.3
CCN1C(=O)NC(CC2CC2)CCCCCOc2nc(cn3ccnc23)-c2cc(ncc2OC)[C@H]1C (single isomer, unassigned) [Example 55A] | 99.2 | 78.9
CCN1C(=O)N[C@@H](CCC(C)(F)F)CCOCCOc2nc(cc3ncnn23)-c2cc(ncc2OC)[C@H]1C [Example 169, (3R,E)-7-(3,3-difluorobutyl)-4-ethyl-25-methoxy-3-methyl-10,13-dioxa-4,6-diaza-1(7,5)-[1,2,4]triazolo[1,5-c]pyrimidina-2(4,2)-pyridinacyclotridecaphan-5-one] | 111.8 | 3.36
CCN1C(=O)NC(CCC(C)(F)F)CCCCCOc2nc(nn3ccnc23)-c2cc(ncc2OC)[C@H]1C (stereo partly drawn) [Example 200, (3R,E)-7-(3,3-difluorobutyl)-4-ethyl-25-methoxy-3-methyl-13-oxa-4,6-diaza-1(2,4)-imidazo[2,1-f][1,2,4]triazina-2(4,2)-pyridinacyclo-tridecaphan-5-one] | 99.5 | 0.53
CCN1C(=O)NC(CCC(C)(C)F)CCCCCOc2nc(cn3ccnc23)-c2cc(ncc2OC)[C@H]1C (single isomer, unassigned) [Example 71A] | 100.5 | 4.2
C[C@@H]1c2cc(c(F)cn2)-c2nc(c3nccn3n2)OCCCCCC(CCC(F)F)NC(=O)N1C1CC1 (stereo partly drawn) [Example 205, (3R,E)-4-cyclopropyl-7-(3,3-difluoropropyl)-25-fluoro-3-methyl-13-oxa-4,6-diaza-1(2,4)-imidazo[2,1-f] [1,2,4] triazina-2(4,2)-pyridinacyclo-tridecaphan-5-one] | 104.8 | 2.39
